According to patent US10874743B2, “IRAK degraders and uses thereof” (Kymera Therapeutics, Inc., priority 2017, dated 2020):

Target: T1, IRAK4 (Homo sapiens, UniProt Q9NWZ3)
T1 sequence (Q9NWZ3 1-460): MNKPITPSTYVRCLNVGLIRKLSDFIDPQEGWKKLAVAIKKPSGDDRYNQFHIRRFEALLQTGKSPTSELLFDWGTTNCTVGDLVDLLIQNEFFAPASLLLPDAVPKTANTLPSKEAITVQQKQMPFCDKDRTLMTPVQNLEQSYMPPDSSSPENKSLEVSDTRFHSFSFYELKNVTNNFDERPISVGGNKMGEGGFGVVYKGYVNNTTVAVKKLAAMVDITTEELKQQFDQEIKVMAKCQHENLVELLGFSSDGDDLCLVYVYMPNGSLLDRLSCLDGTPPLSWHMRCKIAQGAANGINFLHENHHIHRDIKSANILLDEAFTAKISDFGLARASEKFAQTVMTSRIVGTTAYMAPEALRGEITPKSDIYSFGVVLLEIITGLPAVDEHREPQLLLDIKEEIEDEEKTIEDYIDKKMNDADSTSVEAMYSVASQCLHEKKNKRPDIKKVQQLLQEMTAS
Experiment: OCI-LY-10 degradation assay (western blot, % IRAK4 degraded after 4 hours)
Assay type: cell-based
Parameters: endogenous in cells; host or cells: OCI-LY10
Conditions: OCI-LY10 cells; for OCI-LY10 % IRAK4 Degradation: IRAK4 degraded after 4 hours, western blot; for OCI-LY10 % IRAK4 Degradation (0.01 uM) / OCI-LY10 % IRAK4 Degradation (0.1 uM) / OCI-LY10 % IRAK4 Degradation (1 uM): 4 hours; for OCI-LY10 % IRAK4 Degradation (0.01 uM): 0.01 uM compound; for OCI-LY10 % IRAK4 Degradation (0.1 uM): 0.1 uM compound; for OCI-LY10 % IRAK4 Degradation (1 uM): 1 uM compound
Outline: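 OCI-LY10 cells (RPMI-1640, 20% FBS, 55 μM 2-ME) treated with compound at 0.003-10 μM final for 4 h at 37° C, then lysed in RIPA buffer. IRAK4 level read by fluorescent western blot (20-25 μg protein) and binned as % degraded: A >50%, B >20-50%, C <20%.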

Row | SMILES | OCI-LY10 % IRAK4 Degradation | OCI-LY10 % IRAK4 Degradation (0.01 uM) | OCI-LY10 % IRAK4 Degradation (0.1 uM) | OCI-LY10 % IRAK4 Degradation (1 uM)
1 | NC(=O)[C@@H](O)C[C@H]1CCc2sc3ncnc(O[C@H]4CC[C@H](N5CCN(CCOCCNc6cccc7c6C(=O)N(C6CCC(=O)NC6=O)C7=O)CC5)CC4)c3c21 (stereo partly drawn) [I-184, T(2R)-3-[(8R)-1-[4-[4-[2-[2-[[2-(2,6-dioxo-3-piperidyl)-1,3-dioxo-isoindolin-4-yl]amino]V ethoxy]ethyl]piperazin-1-yl]cyclohexoxy]-7,8-dihydro-6H-cyclopenta[4,5]thieno[1,2-c]pyrimidin-8-yl]-2-hydroxy-propanamide] | C (<20% degradation) | – | – | –
2 | O=C1CCC(N2C(=O)c3cccc(OCC(F)CNC(=O)c4cnc(Nc5ccc6cnccc6n5)cc4NC4CC4)c3C2=O)C(=O)N1 (stereo not drawn) [I-174, 4-(Cyclopropylamino)-N-[3-[2-(2,6-dioxo-3-piperidyl)-1,3-dioxo-isoindolin-4-yl]oxy-2-fluoro-propyl]-6-(1,6-naphthyridin-2-ylamino)pyridine-3-carboxamide] | C (<20% degradation) | – | – | –
3 | CC(C)(OCCOCCOCCOCCNc1cccc2c1C(=O)N(C1CCC(=O)NC1=O)C2=O)C(F)CNC(=O)c1cnc(-n2ncc3cc(C#N)cnc32)cc1NC1CC1 (stereo not drawn) [I-73] | C (<20% degradation) | – | – | –
4 | CC[C@@H]1[C@H](F)C(=O)N[C@@H]1COc1nccc2cc(C(=O)NCCOCCOCCOCCOCCNC(=O)COc3cccc4c3C(=O)N(C3CCC(=O)NC3=O)C4=O)c(OC)cc12 (stereo partly drawn) [I-103] | C (<20% degradation) | – | – | –
5 | Cc1ccc(NS(=O)(=O)c2ccc(CNC(=O)COCCOCCOCCOCCNC(=O)c3ccc(-n4cc(NC(=O)c5coc(-c6ccnc(NCC(F)(F)F)c6)n5)c(C(N)=O)n4)cc3)cc2)c2[nH]cc(C#N)c12 [I-113] | C (<20% degradation) | – | – | –
6 | CC(C)(OCCNc1cccc2c1C(=O)N(C1CCC(=O)NC1=O)C2=O)C(F)CNC(=O)c1cnc(-n2ncc3cc(C#N)cnc32)cc1NC1CC1 (stereo not drawn) [I-75] | C (<20% degradation) | – | – | –
7 | N#Cc1cnc2c(cnn2-c2cc(NC3CC3)c(C(=O)NCC(F)COCCNc3cccc4c3C(=O)N(C3CCC(=O)NC3=O)C4=O)cn2)c1 (stereo not drawn) [I-82] | C (<20% degradation) | – | – | –
8 | CC(C)(OCCOCCOCCOCCOCCNc1cccc2c1C(=O)N(C1CCC(=O)NC1=O)C2=O)C(F)CNC(=O)c1cnc(Nc2ncc(C#N)cc2F)cc1NC1CC1 (stereo not drawn) [I-69] | C (<20% degradation) | – | – | –
9 | NC(=O)[C@@H](O)C[C@H]1CCc2sc3ncnc(OC4CCC(N5CCN(C(=O)COCCOCCOCCOCCNc6cccc7c6C(=O)N(C6CCC(=O)NC6=O)C7=O)CC5)CC4)c3c21 (stereo partly drawn) [I-161, (2S)-3-[(8R)-1-[4-[4-[2-[2-[2-[2-[2-[[2-(2,6-dioxo-3-piperidyl)-1,3-dioxo-isoindolin-4-yl]amino]ethoxy]ethoxy]ethoxy]ethoxy]acetyl]piperazin-1-yl]cyclohexoxy]-7,8-dihydro-6H-cyclopenta[4,5]thieno[1,2-c]pyrimidin-8-yl]-2-hydroxy-propanamide] | C (<20% degradation) | – | – | –
10 | NC(=O)c1nn(C2CN(CCOCCOCCOCCNc3cccc4c3C(=O)N(C3CCC(=O)NC3=O)C4=O)C2)cc1NC(=O)c1coc(-c2ccnc(NCC(F)(F)F)c2)n1 (stereo not drawn) [I-169, N-[3-carbamoyl-1-[1-[2-[2-[2-[2-[[2-(2,6-dioxo-3-piperidyl)-1,3-dioxo-isoindolin-4-yl]amino]ethoxy]ethoxy]ethoxy]ethyl]azetidin-3-yl]pyrazol-4-yl]-2-[2-(2,2,2-trifluoroethylamino)-4-pyridyl]oxazole-4-carboxamide] | C (<20% degradation) | – | – | –

More lines, now with the values ahead:

Row | OCI-LY10 % IRAK4 Degradation | OCI-LY10 % IRAK4 Degradation (0.01 uM) | OCI-LY10 % IRAK4 Degradation (0.1 uM) | OCI-LY10 % IRAK4 Degradation (1 uM) | SMILES
11 | – | C (<20% degradation) | C (<20% degradation) | B (>20-50% degradation) | CN(CCOCCCc1ccc2c(c1)C(=O)N(C1CCC(=O)NC1=O)C2=O)Cc1ccc(-n2cc(NC(=O)c3coc(-c4ccncc4)n3)c(C(F)F)n2)cc1 (stereo not drawn) [I-377]
12 | – | B (>20-50% degradation) | A (>50% degradation) | A (>50% degradation) | O=C1CCC(n2c(=O)oc3c(CCCOCCOCCNC(=O)c4ccc(-n5cc(NC(=O)c6coc(-c7ccnc(NCC(F)(F)F)c7)n6)c(C(F)F)n5)cc4)cccc32)C(=O)N1 (stereo not drawn) [I-256]
13 | – | C (<20% degradation) | C (<20% degradation) | C (<20% degradation) | O=C1CCC(N2C(=O)c3cccc(NCCOCCOCCN4Cc5ccc(-n6cc(NC(=O)c7coc(-c8ccnc(NCC9CC9)c8)n7)c(C(F)(F)F)n6)cc5C4)c3C2=O)C(=O)N1 (stereo not drawn) [I-426, 2-[2-(Cyclopropylmethylamino)-4-pyridyl]-N-[1-[2-[2-[2-[2-[[2-(2,6-dioxo-3-piperidyl)-1,3-dioxo-isoindolin-4-yl]amino]ethoxy]ethoxy]ethyl]isoindolin-5-yl]-3-(trifluoromethyl)pyrazol-4-yl]oxazole-4-carboxamide]
14 | – | B (>20-50% degradation) | A (>50% degradation) | A (>50% degradation) | NC(=O)c1nn(-c2ccc(CNCCOCCOCCOCCCc3cccc4c3CN(C3CCC(=O)NC3=O)C4=O)cc2)cc1NC(=O)c1coc(-c2ccnc(NCC3CC3)c2)n1 (stereo not drawn) [I-325]
15 | C (<20% degradation) | – | – | – | Cc1ncsc1-c1ccc(CNC(=O)[C@@H]2C[C@@H](O)CN2C(=O)[C@@H](NC(=O)COCCCCCOCCCCCNC(=O)CN2CCC(Nc3cccc(-c4cnc5ccc(C#N)cn45)n3)C2)C(C)(C)C)cc1 (stereo partly drawn) [I-205]
16 | C (<20% degradation) | – | – | – | Cc1ncsc1-c1ccc(CNC(=O)[C@@H]2C[C@@H](O)CN2C(=O)[C@@H](NCCCCCOCCOCCCCCNC(=O)c2ccc(-n3cc(NC(=O)c4coc(-c5ccnc(NCC(F)(F)F)c5)n4)c(C(N)=O)n3)cc2)C(C)(C)C)cc1 [I-188, N-(3-carbamoyl-1-(4-((5-(2-((5-(((S)-1-((2S,4R)-4-hydroxy-2-((4-(4-methylthiazol-5-yl)benzyl)carbamoyl)pyrrolidin-1-yl)-3,3-dimethyl-1-oxobutan-2-yl)amino)pentyl)oxy)ethoxy)pentyl)carbamoyl)phenyl)-1H-pyrazol-4-yl)-2-(2-((2,2,2-trifluoroethyl)amino)pyridin-4-yl)oxazole-4-carboxamide]
17 | – | B (>20-50% degradation) | B (>20-50% degradation) | B (>20-50% degradation) | O=C1CCC(N2C(=O)c3ccc(CCCNCc4ccc(-n5cc(NC(=O)c6coc(-c7ccnc(NCC(F)(F)F)c7)n6)c(C(F)F)n5)cc4)cc3C2=O)C(=O)N1 (stereo not drawn) [I-375]
18 | – | C (<20% degradation) | C (<20% degradation) | C (<20% degradation) | CN(CCCCCCCCCc1cccc2c1C(=O)N(C1CCC(=O)NC1=O)C2=O)C(=O)c1ccc(-n2cc(NC(=O)c3coc(-c4ccnc(NCC5CC5)c4)n3)c(C(N)=O)n2)cc1 (stereo not drawn) [I-230]
19 | – | C (<20% degradation) | C (<20% degradation) | C (<20% degradation) | O=C1CCC(N2C(=O)c3cccc(CCCOCCNC(=O)c4ccc(-n5cc(NC(=O)c6coc(-c7ccnc(NCC8CC8)c7)n6)c(C(F)F)n5)cc4)c3C2=O)C(=O)N1 (stereo not drawn) [I-243]
